Legend:
[1] = Relative solubility of 14C-labeled β-lapachone in aqueous solutions of solubilizing agents; assay type: physicochemical
Description: In light of the above, two different strategies were used to enhance β-lapachone solubility in aqueous solution. First, β-lapachone was treated with metal chelating agents, such as calcium and magnesium, to form soluble complexes; second, β-lapachone was treated with the solubilizing agents β-cyclodextrin and γ-cyclodextrin to form soluble inclusion complexes. In order to evaluate these four reagents, ^14C-labeled β-lapachone in a small volume of ethanol was added to aqueous solutions of the reagents (or to PBS buffer as a control), then the relative solubility of β-lapachone in each of the solutions was measured in terms of radioactivity remaining in the supernatant after centrifugation.
Specifically, to individual 1.5 ml Eppendorf tubes containing 900 μl of PBS buffer were added the following: 8 mM CaCl2 in PBS buffer, 8 mM of MgCl2 in PBS buffer, 8 mM β-cyclodextrin in PBS buffer, and 8 mM γ-cyclodextrin in PBS buffer. 10 μl of C^14 labeled β-lapachone (40,000 CPM, 0.55 μg) in 75% ethanol was then added to each tube. After vortexing and centrifuging at 13,000 rpm for 10 min, 100 μl of the supernatant solution was counted for radioactivity using a Beckman Scintillation Counter. […] After vortexing and centrifuging at 13,000 rpm for 10 min, 100 μl of the supernatant solution was counted again for radioactivity. […]

[2] = target: T1, human DNA Topoisomerases I (Homo sapiens, UniProt P11387); conditions: cited from earlier work
T1 sequence (P11387 1-765): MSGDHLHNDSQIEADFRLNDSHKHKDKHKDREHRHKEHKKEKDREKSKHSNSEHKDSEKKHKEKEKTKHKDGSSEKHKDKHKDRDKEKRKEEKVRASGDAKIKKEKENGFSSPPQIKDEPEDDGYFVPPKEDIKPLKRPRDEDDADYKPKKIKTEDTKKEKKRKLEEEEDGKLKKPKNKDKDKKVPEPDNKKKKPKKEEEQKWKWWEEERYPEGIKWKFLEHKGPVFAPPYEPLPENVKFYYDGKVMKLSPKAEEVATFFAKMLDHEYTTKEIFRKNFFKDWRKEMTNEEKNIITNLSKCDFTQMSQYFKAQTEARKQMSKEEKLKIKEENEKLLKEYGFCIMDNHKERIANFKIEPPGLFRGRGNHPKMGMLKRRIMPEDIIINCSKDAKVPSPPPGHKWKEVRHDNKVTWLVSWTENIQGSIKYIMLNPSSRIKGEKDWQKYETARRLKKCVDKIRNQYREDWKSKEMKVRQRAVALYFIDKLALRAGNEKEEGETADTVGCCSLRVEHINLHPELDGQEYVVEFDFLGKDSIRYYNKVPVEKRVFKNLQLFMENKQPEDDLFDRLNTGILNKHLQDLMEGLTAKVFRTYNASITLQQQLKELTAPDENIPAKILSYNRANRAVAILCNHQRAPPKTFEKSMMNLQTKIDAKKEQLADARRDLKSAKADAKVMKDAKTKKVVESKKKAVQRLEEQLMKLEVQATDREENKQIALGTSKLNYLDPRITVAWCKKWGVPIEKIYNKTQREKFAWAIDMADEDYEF

## CC1(C)CCC2=C(O1)c1ccccc1C(=O)C2=O [β-lapachone]
[1]; 0.5 μg β-lapachone added, all five aqueous solutions (PBS, CaCl2, MgCl2, β-cyclodextrin, γ-cyclodextrin)
  β-lapachone present in the supernatant: ~100%
[1]; 600 μg β-lapachone added, 8 mM β-cyclodextrin in PBS buffer (only this solution)
  β-lapachone retained in the supernatant: more than 50%
[2]
  in vitro inhibition: potent in vitro inhibition

From patent US7074824B2, “Pharmaceutical compositions containing beta-lapachone, or derivatives or analogs thereof, and methods of using same” (Arqule, Inc., priority 2001, dated 2006)
